Results reported in the NIST ThermoML archive (doi:10.1021/acs.jced.8b01004).

Tests used:
[1] = xn = mol fraction of the nth substance listed; conditions: 100 kPa, Liquid; for viscosity: Falling or rolling sphere viscometry; for mass density: Vibrating tube method
[2] = 100 kPa, Liquid; for viscosity: Falling or rolling sphere viscometry; for mass density: Vibrating tube method

CC1CCCCC1 [methylcyclohexane] + OC1CCCC1
[1], x1 = 1
Conditions | mass density [kg/m3] | viscosity [mPa·s]
293.15 K | 769.35 | 0.735
298.15 K | 765 | 0.689
303.15 K | 760.65 | 0.647
308.15 K | 756.3 | 0.611
313.15 K | 751.93 | 0.577
318.15 K | 747.56 | 0.547
323.15 K | 743.16 | 0.519
328.15 K | 738.74 | 0.495
333.15 K | 734.29 | 0.473
338.15 K | 729.82 | 0.453
343.15 K | 725.32 | 0.434

C1CC[C@H]2CCCC[C@H]2C1 [cis-decahydronaphthalene] + C1CC[C@H]2CCCC[C@@H]2C1
[1], x1 = 0.5
Conditions | mass density [kg/m3] | viscosity [mPa·s]
293.15 K | 880.41 | 2.488
298.15 K | 876.64 | 2.255
303.15 K | 872.86 | 2.054
308.15 K | 869.1 | 1.88
313.15 K | 865.33 | 1.727
318.15 K | 861.56 | 1.592
323.15 K | 857.8 | 1.473
328.15 K | 854.02 | 1.367
333.15 K | 850.25 | 1.272
338.15 K | 846.47 | 1.188
343.15 K | 842.68 | 1.111

CC1CCCCC1 [methylcyclohexane]
[2]
Conditions | mass density [kg/m3] | viscosity [mPa·s]
293.15 K | 769.35 | 0.735
298.15 K | 765 | 0.689
303.15 K | 760.65 | 0.647
308.15 K | 756.3 | 0.611
313.15 K | 751.93 | 0.577
318.15 K | 747.56 | 0.547
323.15 K | 743.16 | 0.519
328.15 K | 738.74 | 0.495
333.15 K | 734.29 | 0.473
338.15 K | 729.82 | 0.453
343.15 K | 725.32 | 0.434

OC1CCCC1 [cyclopentanol]
[2]
Conditions | mass density [kg/m3] | viscosity [mPa·s]
293.15 K | 946.99 | 11.88
298.15 K | 943.05 | 9.722
303.15 K | 939.05 | 8.068
308.15 K | 935.01 | 7.077
313.15 K | 930.91 | 6.04
318.15 K | 926.75 | 5.19
323.15 K | 922.53 | 4.441
328.15 K | 918.24 | 3.83
333.15 K | 913.89 | 3.312
338.15 K | 909.48 | 2.886
343.15 K | 904.99 | 2.53
